Test results from PubChem BioAssay (NCI).
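The compound was tested at five concentrations on cells cultured in 96-well plates, with a 48-hour exposure period. TGI: concentration producing complete growth inhibition.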

Key:
Test in all cases: inhibition of tumour cell growth, NCI panel, 48 h
786-0 renal = test system: 786-0 renal
A498 renal = test system: A498 renal
A549 NSCLC = test system: A549 NSCLC
ACHN renal = test system: ACHN renal
CAKI-1 renal = test system: CAKI-1 renal
CCRF-CEM leukemia = test system: CCRF-CEM leukemia
COLO 205 colon = test system: COLO 205 colon
DU-145 prostate = test system: DU-145 prostate
EKVX NSCLC = test system: EKVX NSCLC
HCC-2998 colon = test system: HCC-2998 colon
HCT-116 colon = test system: HCT-116 colon
HCT-15 colon = test system: HCT-15 colon
HL-60(TB) leukemia = test system: HL-60(TB) leukemia
HOP-62 NSCLC = test system: HOP-62 NSCLC
HOP-92 NSCLC = test system: HOP-92 NSCLC
HS 578T breast = test system: HS 578T breast
HT29 colon = test system: HT29 colon
IGROV1 ovarian = test system: IGROV1 ovarian
K-562 leukemia = test system: K-562 leukemia
KM12 colon = test system: KM12 colon
LOX IMVI melanoma = test system: LOX IMVI melanoma
M14 melanoma = test system: M14 melanoma
MALME-3M melanoma = test system: MALME-3M melanoma
MCF7 breast = test system: MCF7 breast
MDA-MB-231 breast = test system: MDA-MB-231 breast
MDA-MB-435 = test system: MDA-MB-435
MDA-N = test system: MDA-N
MOLT-4 leukemia = test system: MOLT-4 leukemia
NCI-H226 lung = test system: NCI-H226 lung
NCI-H23 lung = test system: NCI-H23 lung
NCI-H460 lung = test system: NCI-H460 lung
NCI-H522 lung = test system: NCI-H522 lung
NCI/ADR-RES ovarian = test system: NCI/ADR-RES ovarian
OVCAR-3 ovarian = test system: OVCAR-3 ovarian
OVCAR-4 ovarian = test system: OVCAR-4 ovarian
OVCAR-5 ovarian = test system: OVCAR-5 ovarian
OVCAR-8 ovarian = test system: OVCAR-8 ovarian
PC-3 prostate = test system: PC-3 prostate
RPMI-8226 leukemia = test system: RPMI-8226 leukemia
RXF 393 renal = test system: RXF 393 renal
SF-268 CNS = test system: SF-268 CNS
SF-295 CNS = test system: SF-295 CNS
SF-539 CNS = test system: SF-539 CNS
SK-MEL-2 melanoma = test system: SK-MEL-2 melanoma
SK-MEL-28 melanoma = test system: SK-MEL-28 melanoma
SK-MEL-5 melanoma = test system: SK-MEL-5 melanoma
SK-OV-3 ovarian = test system: SK-OV-3 ovarian
SN12C renal = test system: SN12C renal
SNB-19 CNS = test system: SNB-19 CNS
SW-620 colon = test system: SW-620 colon
T-47D breast = test system: T-47D breast
TK-10 renal = test system: TK-10 renal
U251 CNS = test system: U251 CNS
UACC-257 melanoma = test system: UACC-257 melanoma
UACC-62 melanoma = test system: UACC-62 melanoma
UO-31 renal = test system: UO-31 renal
SNB-75 CNS = test system: SNB-75 CNS
SR leukemia = test system: SR leukemia

## CC(C)C1SCc2nc3ccccc3n21 (stereo unspecified)
786-0 renal
  TGI: > 100 µM
A498 renal
  TGI: 83.3 µM
A549 NSCLC
  TGI: > 100 µM
ACHN renal
  TGI: > 100 µM
CAKI-1 renal
  TGI: > 100 µM
CCRF-CEM leukemia
  TGI: > 100 µM
COLO 205 colon
  TGI: 26.8 µM
DU-145 prostate
  TGI: > 100 µM
EKVX NSCLC
  TGI: > 100 µM
HCC-2998 colon
  TGI: > 100 µM
HCT-116 colon
  TGI: > 100 µM
HCT-15 colon
  TGI: > 100 µM
HL-60(TB) leukemia
  TGI: > 100 µM
HOP-62 NSCLC
  TGI: > 100 µM
HOP-92 NSCLC
  TGI: > 100 µM
HS 578T breast
  TGI: > 100 µM
HT29 colon
  TGI: > 100 µM
IGROV1 ovarian
  TGI: > 100 µM
K-562 leukemia
  TGI: > 100 µM
KM12 colon
  TGI: 45.5 µM
LOX IMVI melanoma
  TGI: > 100 µM
M14 melanoma
  TGI: > 100 µM
MALME-3M melanoma
  TGI: > 100 µM
MCF7 breast
  TGI: 45.8 µM
MDA-MB-231 breast
  TGI: 78.2 µM
MDA-MB-435
  TGI: 89.9 µM
MDA-N
  TGI: > 100 µM
MOLT-4 leukemia
  TGI: 81.6 µM
NCI-H226 lung
  TGI: 0.96 µM
NCI-H23 lung
  TGI: > 100 µM
NCI-H460 lung
  TGI: > 100 µM
NCI-H522 lung
  TGI: > 100 µM
NCI/ADR-RES ovarian
  TGI: > 100 µM
OVCAR-3 ovarian
  TGI: > 100 µM
OVCAR-4 ovarian
  TGI: > 100 µM
OVCAR-5 ovarian
  TGI: > 100 µM
OVCAR-8 ovarian
  TGI: > 100 µM
PC-3 prostate
  TGI: 71.2 µM
RPMI-8226 leukemia
  TGI: > 100 µM
RXF 393 renal
  TGI: > 100 µM
SF-268 CNS
  TGI: > 100 µM
SF-295 CNS
  TGI: > 100 µM
SF-539 CNS
  TGI: > 100 µM
SK-MEL-2 melanoma
  TGI: 79.6 µM
SK-MEL-28 melanoma
  TGI: > 100 µM
SK-MEL-5 melanoma
  TGI: 31 µM
SK-OV-3 ovarian
  TGI: > 100 µM
SN12C renal
  TGI: > 100 µM
SNB-19 CNS
  TGI: > 100 µM
SW-620 colon
  TGI: > 100 µM
T-47D breast
  TGI: > 100 µM
TK-10 renal
  TGI: > 100 µM
U251 CNS
  TGI: > 100 µM
UACC-257 melanoma
  TGI: > 100 µM
UACC-62 melanoma
  TGI: > 100 µM
UO-31 renal
  TGI: > 100 µM

## CC(C)[Si](OC1=C(C(=O)N(C)c2ccccc2Cl)CCCC1)(C(C)C)C(C)C
786-0 renal
  TGI: 34.6 µM
A498 renal
  TGI: 31 µM
A549 NSCLC
  TGI: 14.3 µM
ACHN renal
  TGI: 29.5 µM
CAKI-1 renal
  TGI: 27.3 µM
CCRF-CEM leukemia
  TGI: 29.7 µM
COLO 205 colon
  TGI: 29.3 µM
DU-145 prostate
  TGI: 22.5 µM
EKVX NSCLC
  TGI: 28 µM
HCC-2998 colon
  TGI: 28.1 µM
HCT-15 colon
  TGI: 31.2 µM
HOP-62 NSCLC
  TGI: 34.6 µM
HOP-92 NSCLC
  TGI: 26.3 µM
HS 578T breast
  TGI: 30.7 µM
HT29 colon
  TGI: 32.3 µM
IGROV1 ovarian
  TGI: 31.4 µM
K-562 leukemia
  TGI: > 100 µM
KM12 colon
  TGI: 27.5 µM
LOX IMVI melanoma
  TGI: 30 µM
M14 melanoma
  TGI: 30.2 µM
MALME-3M melanoma
  TGI: 26.4 µM
MCF7 breast
  TGI: 27.2 µM
MDA-MB-231 breast
  TGI: 31.3 µM
MDA-MB-435
  TGI: 31.2 µM
MDA-N
  TGI: 34.3 µM
MOLT-4 leukemia
  TGI: 43 µM
NCI-H226 lung
  TGI: 31 µM
NCI-H23 lung
  TGI: 31.4 µM
NCI-H460 lung
  TGI: 28.6 µM
NCI-H522 lung
  TGI: 19.2 µM
NCI/ADR-RES ovarian
  TGI: 29.6 µM
OVCAR-3 ovarian
  TGI: 27.5 µM
OVCAR-4 ovarian
  TGI: 28.9 µM
OVCAR-5 ovarian
  TGI: 26.3 µM
OVCAR-8 ovarian
  TGI: 30.2 µM
PC-3 prostate
  TGI: 24.4 µM
RPMI-8226 leukemia
  TGI: 55.4 µM
RXF 393 renal
  TGI: 30.1 µM
SF-268 CNS
  TGI: 29.2 µM
SF-295 CNS
  TGI: 20.9 µM
SF-539 CNS
  TGI: 32.7 µM
SK-MEL-2 melanoma
  TGI: 29.3 µM
SK-MEL-28 melanoma
  TGI: 37.4 µM
SK-MEL-5 melanoma
  TGI: 27.5 µM
SK-OV-3 ovarian
  TGI: 28.5 µM
SNB-19 CNS
  TGI: 25.6 µM
SNB-75 CNS
  TGI: 27.5 µM
SR leukemia
  TGI: 24.1 µM
SW-620 colon
  TGI: 33.3 µM
T-47D breast
  TGI: 10.5 µM
TK-10 renal
  TGI: 29.5 µM
U251 CNS
  TGI: 25.8 µM
UACC-257 melanoma
  TGI: 24.1 µM
UACC-62 melanoma
  TGI: 34 µM
UO-31 renal
  TGI: 27.6 µM
